Experimental data: PubChem BioAssay (NCI)
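48-hour exposure; five concentrations; linearly interpolated endpoints. TGI is the concentration that stops growth completely.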

Tested on: 786-0 renal
Test: growth of human tumour cells (NCI), 48 h

SMILES | TGI [µM]
CC1=C2CCCC2=C/C(=N/Nc2ccc([N+](=O)[O-])cc2[N+](=O)[O-])CC1 | > 100
COc1ccc2oc(-c3cccnc3)cc(=O)c2c1 | > 100
O=C(NCCCCN=c1cccccc1NCCCCNC(=O)OCc1ccccc1)OCc1ccccc1 | 31.8

Tested on: A498 renal
Test: growth of human tumour cells (NCI), 48 h

SMILES | TGI [µM]
COc1ccc2oc(-c3cccnc3)cc(=O)c2c1 | > 100

Tested on: A549 NSCLC
Test: growth of human tumour cells (NCI), 48 h

SMILES | TGI [µM]
CC1=C2CCCC2=C/C(=N/Nc2ccc([N+](=O)[O-])cc2[N+](=O)[O-])CC1 | > 100
COC(=O)CN(C)P(=O)(N1CC1)N1CC1 | > 100
O=C(NCCCCN=c1cccccc1NCCCCNC(=O)OCc1ccccc1)OCc1ccccc1 | 74.6

Tested on: ACHN renal
Test: growth of human tumour cells (NCI), 48 h

SMILES | TGI [µM]
CC1=C2CCCC2=C/C(=N/Nc2ccc([N+](=O)[O-])cc2[N+](=O)[O-])CC1 | > 100
COc1ccc2oc(-c3cccnc3)cc(=O)c2c1 | > 100
COC(=O)CN(C)P(=O)(N1CC1)N1CC1 | > 100
O=C(NCCCCN=c1cccccc1NCCCCNC(=O)OCc1ccccc1)OCc1ccccc1 | 59.5

Tested on: CAKI-1 renal
Test: growth of human tumour cells (NCI), 48 h

SMILES | TGI [µM]
CC1=C2CCCC2=C/C(=N/Nc2ccc([N+](=O)[O-])cc2[N+](=O)[O-])CC1 | > 100
COc1ccc2oc(-c3cccnc3)cc(=O)c2c1 | > 100
COC(=O)CN(C)P(=O)(N1CC1)N1CC1 | > 100
O=C(NCCCCN=c1cccccc1NCCCCNC(=O)OCc1ccccc1)OCc1ccccc1 | 37.9

Tested on: CCRF-CEM leukemia
Test: growth of human tumour cells (NCI), 48 h

SMILES | TGI [µM]
CC1=C2CCCC2=C/C(=N/Nc2ccc([N+](=O)[O-])cc2[N+](=O)[O-])CC1 | > 100
COc1ccc2oc(-c3cccnc3)cc(=O)c2c1 | > 100
COC(=O)CN(C)P(=O)(N1CC1)N1CC1 | > 100
O=C(NCCCCN=c1cccccc1NCCCCNC(=O)OCc1ccccc1)OCc1ccccc1 | 47.8

Tested on: COLO 205 colon
Test: growth of human tumour cells (NCI), 48 h

SMILES | TGI [µM]
CC1=C2CCCC2=C/C(=N/Nc2ccc([N+](=O)[O-])cc2[N+](=O)[O-])CC1 | > 100
COc1ccc2oc(-c3cccnc3)cc(=O)c2c1 | > 100
COC(=O)CN(C)P(=O)(N1CC1)N1CC1 | > 100

Tested on: DLD-1 colon
Test: growth of human tumour cells (NCI), 48 h

SMILES | TGI [µM]
CC1=C2CCCC2=C/C(=N/Nc2ccc([N+](=O)[O-])cc2[N+](=O)[O-])CC1 | > 100
COc1ccc2oc(-c3cccnc3)cc(=O)c2c1 | > 100
COC(=O)CN(C)P(=O)(N1CC1)N1CC1 | > 100
O=C(NCCCCN=c1cccccc1NCCCCNC(=O)OCc1ccccc1)OCc1ccccc1 | 43.6

Tested on: DMS 114 small cell lung
Test: growth of human tumour cells (NCI), 48 h

SMILES | TGI [µM]
CC1=C2CCCC2=C/C(=N/Nc2ccc([N+](=O)[O-])cc2[N+](=O)[O-])CC1 | > 100
COc1ccc2oc(-c3cccnc3)cc(=O)c2c1 | > 100
COC(=O)CN(C)P(=O)(N1CC1)N1CC1 | > 100
O=C(NCCCCN=c1cccccc1NCCCCNC(=O)OCc1ccccc1)OCc1ccccc1 | 29.4

Tested on: DMS 273 small cell lung
Test: growth of human tumour cells (NCI), 48 h

SMILES | TGI [µM]
CC1=C2CCCC2=C/C(=N/Nc2ccc([N+](=O)[O-])cc2[N+](=O)[O-])CC1 | > 100
COc1ccc2oc(-c3cccnc3)cc(=O)c2c1 | > 100
COC(=O)CN(C)P(=O)(N1CC1)N1CC1 | > 100
O=C(NCCCCN=c1cccccc1NCCCCNC(=O)OCc1ccccc1)OCc1ccccc1 | 31.3

Tested on: EKVX NSCLC
Test: growth of human tumour cells (NCI), 48 h

SMILES | TGI [µM]
CC1=C2CCCC2=C/C(=N/Nc2ccc([N+](=O)[O-])cc2[N+](=O)[O-])CC1 | > 100
COC(=O)CN(C)P(=O)(N1CC1)N1CC1 | > 100
O=C(NCCCCN=c1cccccc1NCCCCNC(=O)OCc1ccccc1)OCc1ccccc1 | 81.4

Tested on: HCC-2998 colon
Test: growth of human tumour cells (NCI), 48 h

SMILES | TGI [µM]
COc1ccc2oc(-c3cccnc3)cc(=O)c2c1 | > 100
COC(=O)CN(C)P(=O)(N1CC1)N1CC1 | > 100
O=C(NCCCCN=c1cccccc1NCCCCNC(=O)OCc1ccccc1)OCc1ccccc1 | 32.1

Tested on: HCT-116 colon
Test: growth of human tumour cells (NCI), 48 h

SMILES | TGI [µM]
CC1=C2CCCC2=C/C(=N/Nc2ccc([N+](=O)[O-])cc2[N+](=O)[O-])CC1 | > 100
COc1ccc2oc(-c3cccnc3)cc(=O)c2c1 | > 100
O=C(NCCCCN=c1cccccc1NCCCCNC(=O)OCc1ccccc1)OCc1ccccc1 | 25

Tested on: HCT-15 colon
Test: growth of human tumour cells (NCI), 48 h

SMILES | TGI [µM]
COC(=O)CN(C)P(=O)(N1CC1)N1CC1 | > 100
O=C(NCCCCN=c1cccccc1NCCCCNC(=O)OCc1ccccc1)OCc1ccccc1 | 23.2

Tested on: HL-60(TB) leukemia
Test: growth of human tumour cells (NCI), 48 h

SMILES | TGI [µM]
CC1=C2CCCC2=C/C(=N/Nc2ccc([N+](=O)[O-])cc2[N+](=O)[O-])CC1 | > 100
COc1ccc2oc(-c3cccnc3)cc(=O)c2c1 | > 100
COC(=O)CN(C)P(=O)(N1CC1)N1CC1 | > 100
O=C(NCCCCN=c1cccccc1NCCCCNC(=O)OCc1ccccc1)OCc1ccccc1 | 31.3

Tested on: HOP-18 NSCLC
Test: growth of human tumour cells (NCI), 48 h

SMILES | TGI [µM]
CC1=C2CCCC2=C/C(=N/Nc2ccc([N+](=O)[O-])cc2[N+](=O)[O-])CC1 | > 100

Tested on: HOP-62 NSCLC
Test: growth of human tumour cells (NCI), 48 h

SMILES | TGI [µM]
CC1=C2CCCC2=C/C(=N/Nc2ccc([N+](=O)[O-])cc2[N+](=O)[O-])CC1 | > 100
COc1ccc2oc(-c3cccnc3)cc(=O)c2c1 | > 100
O=C(NCCCCN=c1cccccc1NCCCCNC(=O)OCc1ccccc1)OCc1ccccc1 | 39

Tested on: HOP-92 NSCLC
Test: growth of human tumour cells (NCI), 48 h

SMILES | TGI [µM]
CC1=C2CCCC2=C/C(=N/Nc2ccc([N+](=O)[O-])cc2[N+](=O)[O-])CC1 | > 100
COc1ccc2oc(-c3cccnc3)cc(=O)c2c1 | > 100
O=C(NCCCCN=c1cccccc1NCCCCNC(=O)OCc1ccccc1)OCc1ccccc1 | 20.1

Tested on: HT29 colon
Test: growth of human tumour cells (NCI), 48 h

SMILES | TGI [µM]
CC1=C2CCCC2=C/C(=N/Nc2ccc([N+](=O)[O-])cc2[N+](=O)[O-])CC1 | > 100
COc1ccc2oc(-c3cccnc3)cc(=O)c2c1 | > 100
COC(=O)CN(C)P(=O)(N1CC1)N1CC1 | > 100
O=C(NCCCCN=c1cccccc1NCCCCNC(=O)OCc1ccccc1)OCc1ccccc1 | 18.7

Tested on: IGROV1 ovarian
Test: growth of human tumour cells (NCI), 48 h

SMILES | TGI [µM]
CC1=C2CCCC2=C/C(=N/Nc2ccc([N+](=O)[O-])cc2[N+](=O)[O-])CC1 | > 100
COc1ccc2oc(-c3cccnc3)cc(=O)c2c1 | > 100
COC(=O)CN(C)P(=O)(N1CC1)N1CC1 | > 100
O=C(NCCCCN=c1cccccc1NCCCCNC(=O)OCc1ccccc1)OCc1ccccc1 | 54.1

Tested on: K-562 leukemia
Test: growth of human tumour cells (NCI), 48 h

SMILES | TGI [µM]
CC1=C2CCCC2=C/C(=N/Nc2ccc([N+](=O)[O-])cc2[N+](=O)[O-])CC1 | > 100
COc1ccc2oc(-c3cccnc3)cc(=O)c2c1 | > 100
COC(=O)CN(C)P(=O)(N1CC1)N1CC1 | > 100
O=C(NCCCCN=c1cccccc1NCCCCNC(=O)OCc1ccccc1)OCc1ccccc1 | 33.4

Tested on: KM12 colon
Test: growth of human tumour cells (NCI), 48 h

SMILES | TGI [µM]
CC1=C2CCCC2=C/C(=N/Nc2ccc([N+](=O)[O-])cc2[N+](=O)[O-])CC1 | > 100
COc1ccc2oc(-c3cccnc3)cc(=O)c2c1 | > 100
COC(=O)CN(C)P(=O)(N1CC1)N1CC1 | > 100
O=C(NCCCCN=c1cccccc1NCCCCNC(=O)OCc1ccccc1)OCc1ccccc1 | 32.4

Tested on: KM20L2 colon
Test: growth of human tumour cells (NCI), 48 h

SMILES | TGI [µM]
CC1=C2CCCC2=C/C(=N/Nc2ccc([N+](=O)[O-])cc2[N+](=O)[O-])CC1 | > 100
COC(=O)CN(C)P(=O)(N1CC1)N1CC1 | > 100
O=C(NCCCCN=c1cccccc1NCCCCNC(=O)OCc1ccccc1)OCc1ccccc1 | 26.1

Tested on: LOX IMVI melanoma
Test: growth of human tumour cells (NCI), 48 h

SMILES | TGI [µM]
CC1=C2CCCC2=C/C(=N/Nc2ccc([N+](=O)[O-])cc2[N+](=O)[O-])CC1 | > 100
COc1ccc2oc(-c3cccnc3)cc(=O)c2c1 | > 100
COC(=O)CN(C)P(=O)(N1CC1)N1CC1 | > 100
O=C(NCCCCN=c1cccccc1NCCCCNC(=O)OCc1ccccc1)OCc1ccccc1 | 30

Tested on: LXFL 529 NSCLC
Test: growth of human tumour cells (NCI), 48 h

SMILES | TGI [µM]
CC1=C2CCCC2=C/C(=N/Nc2ccc([N+](=O)[O-])cc2[N+](=O)[O-])CC1 | > 100
COc1ccc2oc(-c3cccnc3)cc(=O)c2c1 | > 100
COC(=O)CN(C)P(=O)(N1CC1)N1CC1 | > 100

Tested on: M14 melanoma
Test: growth of human tumour cells (NCI), 48 h

SMILES | TGI [µM]
CC1=C2CCCC2=C/C(=N/Nc2ccc([N+](=O)[O-])cc2[N+](=O)[O-])CC1 | > 100
COc1ccc2oc(-c3cccnc3)cc(=O)c2c1 | > 100
COC(=O)CN(C)P(=O)(N1CC1)N1CC1 | > 100
O=C(NCCCCN=c1cccccc1NCCCCNC(=O)OCc1ccccc1)OCc1ccccc1 | 29.4

Tested on: M19-MEL melanoma
Test: growth of human tumour cells (NCI), 48 h

SMILES | TGI [µM]
CC1=C2CCCC2=C/C(=N/Nc2ccc([N+](=O)[O-])cc2[N+](=O)[O-])CC1 | > 100
COc1ccc2oc(-c3cccnc3)cc(=O)c2c1 | > 100
O=C(NCCCCN=c1cccccc1NCCCCNC(=O)OCc1ccccc1)OCc1ccccc1 | 39.3

Tested on: MALME-3M melanoma
Test: growth of human tumour cells (NCI), 48 h

SMILES | TGI [µM]
CC1=C2CCCC2=C/C(=N/Nc2ccc([N+](=O)[O-])cc2[N+](=O)[O-])CC1 | > 100
COc1ccc2oc(-c3cccnc3)cc(=O)c2c1 | > 100
COC(=O)CN(C)P(=O)(N1CC1)N1CC1 | > 100
O=C(NCCCCN=c1cccccc1NCCCCNC(=O)OCc1ccccc1)OCc1ccccc1 | 40.6

Tested on: MOLT-4 leukemia
Test: growth of human tumour cells (NCI), 48 h

SMILES | TGI [µM]
CC1=C2CCCC2=C/C(=N/Nc2ccc([N+](=O)[O-])cc2[N+](=O)[O-])CC1 | > 100
COc1ccc2oc(-c3cccnc3)cc(=O)c2c1 | > 100
COC(=O)CN(C)P(=O)(N1CC1)N1CC1 | > 100
O=C(NCCCCN=c1cccccc1NCCCCNC(=O)OCc1ccccc1)OCc1ccccc1 | 38.1

Tested on: NCI-H226 lung
Test: growth of human tumour cells (NCI), 48 h

SMILES | TGI [µM]
CC1=C2CCCC2=C/C(=N/Nc2ccc([N+](=O)[O-])cc2[N+](=O)[O-])CC1 | > 100
COc1ccc2oc(-c3cccnc3)cc(=O)c2c1 | > 100
O=C(NCCCCN=c1cccccc1NCCCCNC(=O)OCc1ccccc1)OCc1ccccc1 | 32.1
